Measurements published in patent US20140303078A1, “MODULATION OF PANCREATIC BETA CELL PROLIFERATION” (President and Fellows of Harvard College, priority 2011, published 2014).
Like-named read-outs stand apart in the source and are kept apart here. Ends that are not written are not given here.

Legend:
pancreatic beta cells [1] = test: S661 once daily in normal mice, beta cell replication by flow cytometry; format: in vivo, C57Bl/6 mice; conditions: S661 1 mg/kg s.c. once daily, 4 days
Experimental: FIG. 13 is a bar graph showing beta cell replication after repeated dosing of S661 in normal mice. Increased beta cell replication with S661 treatment is shown as a percentage of replication. Replication was analyzed by flow cytometry. The control in these experiments is a vehicle without S661. (*** p<0.001; Student's T-Test)
In another study, S661 was administered subcutaneously in vehicle to C57Bl/6 mice as once daily injections of 1 mg/kg bodyweight for a period of 4 days. In parallel BrdU was administered once daily at a dose of 100 mg/kg for the same period. At the fifth day the pancreas was removed and the replication of beta cell was measured by flow cytometry.

pancreatic beta cells [2] = test: S661 repeated dosing in diet-induced obesity (DIO) mice, BrdU immunohistochemistry; format: in vivo, C57Bl/6 mice (DIO); conditions: S661 3 times 1 mg/kg or 0.125 mg/kg s.c., 4 days
Experimental: Increased beta cell replication with S661 treatment is shown as percent replication; there was no effect on non-beta cell replication. […] Immunohistochemistry was performed to analyze replication and islet area. (* p<0.05; ** p<0.01; Student's T-Test)
C57Bl/6 mice were fed a high fat diet for 17 weeks. S661 was administered subcutaneously in vehicle to DIO mice at doses of 3 times 1 mg/kg or 0.125 mg/kg bodyweight for a period of 4 days. In parallel BrdU was administered once daily at a dose of 100 mg/kg for the same period. At the fifth day the pancreas was removed and fixed in PFA. Paraffin embedded sections were stained for insulin, DAPI and BrdU. The incorporation of BrdU in replicating cells was analyzed using an automated script on images generated on a Zeiss Axioimager Z2.

[3] = obese rats, previous reports; cited from earlier work
pancreatic beta cells [4] = test: S661 repeated dosing in normal mice, BrdU incorporation by immunohistochemistry; format: in vivo, C57Bl/6 mice; conditions: 4 days
Experimental: FIG. 12 is a bar graph showing beta cell replication after repeated dosing of S661 in the pancreas of normal mice. Increased replication is shown as a fold increase compared to vehicle rate. Replication was analyzed by immunohistochemistry. The control in these experiments is a vehicle without S661.
In a study, S661 was administered subcutaneously in vehicle to C57Bl/6 mice 3 times daily at the following doses 1 mg/kg; 0.5 mg/kg; 0.25 mg/kg or 0.125 mg/kg bodyweight for a period of 4 days. In parallel BrdU was administered once daily at a dose of 100 mg/kg for the same period. At the fifth day the pancreas was removed and fixed in PFA. Paraffin embedded sections were stained for insulin, DAPI and BrdU. The incorporation of BrdU in replicating beta cells was analyzed using an automated script on images generated on a Zeiss Axioimager Z2.

TD26 (EG624219) mRNA = test: TD26 mRNA expression in tissues of mice treated with S961 for 7 days; format: in vivo; conditions: liver and fat
From the text: Genes close to the diagonal line show similar expression values in treated and untreated liver. […] TD26 expression increases in the liver and fat upon S961 treatment. […] The presumptive signal peptide is included at the N-terminus. […] Hepa1-6 cells have been transfected with a plasmid carrying the gene for TD26 fused to a Myc-tag. The cells were stained with myc antibody.

[5] = Blood glucose levels after administration of S961; format: in vivo
From the text: As used herein, low doses of S961 will typically be less than 1 μMol/Kg/week, preferably from 0.125 μMol/Kg/week to 0.5 μMol/Kg/week. However it will be understood that increased doses may be useful as well, particularly if utilized in conjunction with an anti-hyperglycemic agent.

pancreatic beta cells [6] = test: S961 treatment of mice, beta cell replication (Ki67/insulin immunostaining of pancreas); format: in vivo; conditions: 0.125 to 1 μMol/Kg/week, vs vehicle
From the text: The white arrows point to replicating beta cells. FIG. 1C is a bar graph showing Ki67+/insulin+% after treatment for 7 days with increasing doses (from 0.125 μMol/Kg/week to 1 μMol/Kg/week) of S961. […] The control in these experiments is vehicle without S961. To count the Ki67+/insulin+ percentage and the beta cell area/pancreas area, the whole pancreas was cryosectioned and immunostained, and the standard graph analysis tools such as Metamorph and Photoshop were used for the quantification.
As described herein, administration of a low dose of insulin receptor antagonist S961 to a mammal produces an increase in beta cell replication (FIG. 1). Following injection of S961, gene expression in liver, muscle, and fat was analyzed because these tissues are involved in carbohydrate storage and metabolism. Of particular interest as a result of this analysis was mouse gene EG624219.

Substance: S661: 43 amino acid peptide insulin receptor antagonist, SEQ ID NO: 16 (GSLDESFYDWFERQLGGGSGGSSLEEEWAQIQCEVWGRGCPSY), C-terminus is an amide (GSLDESFYDWFERQLGGGSGGSSLEEEWAQIQCEVWGRGCPSY-NH2; cysteine pairing not given here)
- increase in the percentage of beta cell replication as compared to vehicle (pancreatic beta cells [1]): ~5 fold
- beta cell replication (pancreatic beta cells [2]): increased amount of beta cell replication
- islet area relative to total pancreas area (pancreatic beta cells [2]): increased islet area relative to total pancreas area
- non-beta cell replication (pancreatic beta cells [2]): does not increase non-beta cell replication
- blood glucose levels [3]: marked increase in blood glucose levels
- increase in β-cell replication in comparison to vehicle (pancreatic beta cells [4]; S661 0.125 mg/kg s.c. 3 times daily): 2 fold
- increase in β-cell replication in comparison to vehicle (pancreatic beta cells [4]; S661 1 mg/kg s.c. 3 times daily): 5 fold

Substance: S961: 43 amino acid peptide insulin receptor antagonist, SEQ ID NO: 16 (GSLDESFYDWFERQLGGGSGGSSLEEEWAQIQCEVWGRGCPSY), C-terminus is an acid (GSLDESFYDWFERQLGGGSGGSSLEEEWAQIQCEVWGRGCPSY-OH; cysteine pairing not given here)
- relative expression of TD26 mRNA (TD26 (EG624219) mRNA): increases
- blood glucose levels ([5]; increasing doses of S961): blood glucose levels increase
- blood glucose levels ([5]; low doses of S961): does not increase blood glucose levels
- beta cell replication (Ki67+/insulin+) (pancreatic beta cells [6]; treatment for 7 to 10 days): induces beta cell replication
- beta cell area/pancreas area (pancreatic beta cells [6]; treatment for 7 days): significant increase
